Legend:
[1] = biological target: EGFR (human) (UniProt P00533); details: for inhibition: mda-mb-468, concentration not given here; for IC50: mda-mb-468
[2] = biological target: EGFR (UniProt P00533); details: concentration not given here
EGFR, sequence (P00533 whole entry, looked up): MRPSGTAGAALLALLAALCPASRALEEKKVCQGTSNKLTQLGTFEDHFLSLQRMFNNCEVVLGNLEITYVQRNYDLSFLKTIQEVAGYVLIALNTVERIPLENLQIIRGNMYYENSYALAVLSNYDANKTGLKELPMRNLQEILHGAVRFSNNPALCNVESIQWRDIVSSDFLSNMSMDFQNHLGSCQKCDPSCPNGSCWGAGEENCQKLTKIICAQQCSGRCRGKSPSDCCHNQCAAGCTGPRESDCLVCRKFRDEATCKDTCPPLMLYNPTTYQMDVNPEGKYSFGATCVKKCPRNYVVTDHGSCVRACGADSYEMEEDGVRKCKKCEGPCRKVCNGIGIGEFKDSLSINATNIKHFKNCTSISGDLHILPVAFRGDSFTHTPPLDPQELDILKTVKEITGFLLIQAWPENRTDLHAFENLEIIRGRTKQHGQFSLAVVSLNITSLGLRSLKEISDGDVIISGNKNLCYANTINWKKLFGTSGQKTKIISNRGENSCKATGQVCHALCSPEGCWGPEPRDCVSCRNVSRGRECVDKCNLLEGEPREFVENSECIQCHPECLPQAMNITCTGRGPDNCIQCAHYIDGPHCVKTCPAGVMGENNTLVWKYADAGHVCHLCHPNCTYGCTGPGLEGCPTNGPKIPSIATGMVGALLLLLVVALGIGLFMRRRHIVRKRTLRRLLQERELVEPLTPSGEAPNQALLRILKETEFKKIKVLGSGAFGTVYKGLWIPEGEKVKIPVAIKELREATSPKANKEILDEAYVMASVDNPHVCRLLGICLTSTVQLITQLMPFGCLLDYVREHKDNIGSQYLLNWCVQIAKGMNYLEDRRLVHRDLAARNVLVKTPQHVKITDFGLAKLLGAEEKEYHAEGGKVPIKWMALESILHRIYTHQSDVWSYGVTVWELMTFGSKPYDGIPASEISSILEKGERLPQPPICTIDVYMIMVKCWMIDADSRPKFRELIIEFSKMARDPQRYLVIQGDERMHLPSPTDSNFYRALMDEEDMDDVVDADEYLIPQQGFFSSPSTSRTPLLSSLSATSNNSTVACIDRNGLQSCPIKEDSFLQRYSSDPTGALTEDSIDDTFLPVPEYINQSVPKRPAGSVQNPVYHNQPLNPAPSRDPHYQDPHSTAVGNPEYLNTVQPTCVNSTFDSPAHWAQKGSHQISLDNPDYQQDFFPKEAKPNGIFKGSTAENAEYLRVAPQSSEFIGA

EGFR (human), sequence (P00533 whole entry, looked up): as above

Structure (SMILES) | inhibition [1] [%] | inhibition [2] [%] | IC50 [1] [µM]
O=[N+]([O-])c1ccc(N2CC=CC2)c2c(O)ncnc12 | 34.6 | 7.9 | –
Cc1cccc(Nc2ccc([N+](=O)[O-])c3ncnc(O)c23)c1 | 15.2 | 0 | –
O=[N+]([O-])c1ccc(Nc2ccc(Cl)cc2)c2c(O)ncnc12 | 28.6 | 18.3 | –
COC(=O)C#Cc1ccc([N+](=O)[O-])cc1 | – | 28 | –
O=[N+]([O-])c1ccc(NCc2ccccc2)c2c(O)ncnc12 | 12.1 | 5.2 | –
O=[N+]([O-])c1ccc(Nc2cccc(Cl)c2)c2c(O)ncnc12 | 32.5 | 17.1 | > 10
O=C(O)[C@H](Nc1ccc([N+](=O)[O-])c2ncnc(O)c12)c1ccccc1 | 29.2 | 6.5 | –
O=[N+]([O-])c1ccc(Nc2ccc(OCc3ccccc3)cc2)c2c(O)ncnc12 | – | 21.1 | 4.2
COc1ccc([N+](=O)[O-])c2ncnc(O)c12 | 35.8 | 0 | –
O=[N+]([O-])c1ccc(N2CCCC2)c2c(O)ncnc12 | 23.3 | 0 | –
O=[N+]([O-])c1ccc(Nc2ccccc2)c2c(O)ncnc12 | – | 17.7 | 0.48
CSCC[C@@H](Nc1ccc([N+](=O)[O-])c2ncnc(O)c12)C(=O)O | 19.9 | 5.6 | –
Nc1ccc(Nc2ccc([N+](=O)[O-])c3ncnc(O)c23)cc1 | – | 0 | 4
COc1ccc(Nc2ccc([N+](=O)[O-])c3ncnc(O)c23)cc1 | 75.5 | 12.2 | < 0.01
CCOc1ccc([N+](=O)[O-])c2ncnc(O)c12 | 32.3 | 3.9 | –
